Measurements taken from patent publication US20230038201A1, “TRANSFER FILM, PHOTOSENSITIVE MATERIAL, PATTERN FORMING METHOD, MANUFACTURING METHOD OF CIRCUIT BOARD, AND MANUFACTURING METHOD OF TOUCH PANEL” (FUJIFILM Corporation, priority 2020, published 2023).
Like-named read-outs stand apart in the source and are kept apart here.

Key:
[1] = Measurement of ε365 and ε365/ε313 of compound β (molar absorption coefficients in acetonitrile); type: physicochemical; parameters: key to ε365 of Compound β: molar absorption coefficient at 365 nm in (cm·mol/L)^−1; conditions: for ε365/ε313: compound β
From the text: (Measurement and Evaluation of ε365 and ε365/ε313)
A molar absorption coefficient ((cm·mol/L)^−1, “ε365”) of the compound β at 365 nm and a molar absorption coefficient ((cm·mol/L)^−1, “ε313”) of the compound β at 313 nm were obtained, and a value (ε365/ε313) obtained by divided ε365 by ε313 was obtained.
The ε365 and ε313 of the compound β are molar absorption coefficients measured by dissolving the compound β in acetonitrile. In a case where the compound β was insoluble in acetonitrile, a solvent for dissolving the compound β may be appropriately changed.

[2] = Measurement of pKa of compound β in ground state (acid titration, 0.1 N HCl, methanol/water); conditions: for pKa: methanol/water mixture
[3] = molar absorption coefficient at 365 nm
[4] = molar absorption coefficient at 365 nm in acetonitrile
[5] = molar absorption coefficient at 365 nm, compound β alone
[6] = molar absorption coefficient at 365 nm, in acetonitrile
[7] = pKa in ground state, compound β, pKa of the conjugate acid for nitrogen-containing aromatic compounds
[8] = compound β, pKa of the conjugate acid for nitrogen-containing aromatic compounds
[9] = pKa of Compound β in ground state
[10] = pKa of Compound β in ground state, compound β alone
[11] = pKa of Compound β in ground state, compound β, ground state
[12] = pKa of Compound β in ground state, ground state

In the case of `c1ccncc1` [Example B11, pyridine], the “ε365 of Compound β” value [1] is reported as under 10, the “ε365 of Compound β” value ([1]; compound β alone) is reported as under 10 and the “ε365 of Compound β” value [1, 3] is reported as under 10. For the same compound, the “ε365 of Compound β” value [1, 4] was <10 (cm·mol/L)^−1, the “ε365 of Compound β” value [1, 5] was under 10 and the “ε365 of Compound β” value [1, 6] was <10 (cm·mol/L)^−1.
`c1ccc2c(c1)cnc1ccccc12` [Phenanthridine] showed a ε365/ε313 ([1]; in acetonitrile) of under 1 and a pKa [2, 7] of 3.8.
For `CCCCc1ncc(C)c2ccccc12` [Example B5, 1-n-butyl-4-methylisoquinoline], the pKa [2, 7] was 5.9.
Work on `CCCCc1nccc2ccccc12` [Example B4, 1-n-butylisoquinoline] yielded a pKa [2, 7] of 5.27.
With `c1ccc2ncccc2c1` [Example B2, quinoline] the “ε365 of Compound β” value [1] was under 10, the “ε365 of Compound β” value ([1]; compound β alone) was under 10 and the ε365/ε313 ([1]; in acetonitrile) was under 1. The “ε365 of Compound β” value [1, 3] was under 10, the “ε365 of Compound β” value [1, 4] was <10 (cm·mol/L)^−1 and the “ε365 of Compound β” value [1, 5] was under 10. The “ε365 of Compound β” value [1, 6] was <10 (cm·mol/L)^−1, the “pKa in ground state” value [2, 8] was 4.15 and the pKa [2, 7] was 4.2. It also gave a pKa [2, 9] of 4.15, a pKa [2, 10] of 4.15 and a pKa [2, 11] of 4.15. It also gave a pKa [2, 12] of 4.15.
With `Nc1ccncc1` [Example 4-Aminopyridine, 4-Aminopyridine] the “ε365 of Compound β” value [1] was under 100, the “ε365 of Compound β” value ([1]; compound β alone) was under 100 and the “ε365 of Compound β” value [1, 3] was under 100. The “ε365 of Compound β” value [1, 4] was <100 (cm·mol/L)^−1, the “ε365 of Compound β” value [1, 5] was under 100 and the “ε365 of Compound β” value [1, 6] was <100 (cm·mol/L)^−1. It also gave a pKa [2, 9] of 9.2, a pKa [2, 10] of 9.2 and a pKa [2, 11] of 9.2. The pKa [2, 12] was 9.2.
For `O=C(c1ccccc1)c1ccncc1` [4-Benzoylpyridine], the ε365/ε313 ([1]; in acetonitrile) was under 1 and the pKa [2, 7] was 2.9.
With `Cc1c2ccccc2nc2ccccc12` [Example 9-Methylacridine, 9-Methylacridine] the “ε365 of Compound β” value [1] was 6300, the “ε365 of Compound β” value ([1]; compound β alone) was 6300 and the “ε365 of Compound β” value [1, 3] was 6300. The “ε365 of Compound β” value [1, 4] was 6300 (cm·mol/L)^−1, the “ε365 of Compound β” value [1, 5] was 6300 and the “ε365 of Compound β” value [1, 6] was 6300 (cm·mol/L)^−1. For the same compound, the pKa [2, 9] was 5.4, the pKa [2, 10] was 5.4 and the pKa [2, 11] was 5.4. It also gave a pKa [2, 12] of 5.4.
For `c1ccc(-c2c3ccccc3nc3ccccc23)cc1` [Example 9-Phenylacridine, 9-Phenylacridine], the “ε365 of Compound β” value [1, 5] was over 1000, the pKa [2, 9] was 4.04 and the pKa [2, 10] was 4.04. For the same compound, the pKa [2, 11] was 4.04 and the pKa [2, 12] was 4.04.
In the case of `c1ccc2nc3ccccc3cc2c1` [Example B3, acridine], the “ε365 of Compound β” value [1] is reported as 4900, the “ε365 of Compound β” value ([1]; compound β alone) is reported as 4900 and the ε365/ε313 ([1]; in acetonitrile) is reported as over 3. For the same compound, the “ε365 of Compound β” value [1, 3] was 4900, the “ε365 of Compound β” value [1, 4] was 4900 (cm·mol/L)^−1 and the “ε365 of Compound β” value [1, 5] was 4900. The “ε365 of Compound β” value [1, 6] was 4900 (cm·mol/L)^−1, the “pKa in ground state” value [2, 8] was 4.67 and the pKa [2, 7] was 4.7. It also gave a pKa [2, 9] of 4.67, a pKa [2, 10] of 4.67 and a pKa [2, 11] of 4.67. It also gave a pKa [2, 12] of 4.67.
`CC(=O)c1ccncc1` [4-Acetylpyridine] showed a ε365/ε313 ([1]; in acetonitrile) of under 1 and a pKa [2, 7] of 3.1.
In the case of `COc1cc(C)nc2ccccc12` [Example 2-Methyl-4-methoxyquinoline, 2-Methyl-4-methoxyquinoline], the “ε365 of Compound β” value [1] is reported as under 10, the “ε365 of Compound β” value ([1]; compound β alone) is reported as under 10 and the “ε365 of Compound β” value [1, 3] is reported as under 10. For the same compound, the “ε365 of Compound β” value [1, 4] was <10 (cm·mol/L)^−1, the “ε365 of Compound β” value [1, 5] was under 10 and the “ε365 of Compound β” value [1, 6] was <10 (cm·mol/L)^−1. The pKa [2, 9] was 6.51, the pKa [2, 10] was 6.51 and the pKa [2, 11] was 6.51. The pKa [2, 12] was 6.51.
With `CCCCc1ncc(C)c2ccccc12` [Example 1-n-Butyl-4-methylisoquinoline, 1-n-Butyl-4-methylisoquinoline] the “ε365 of Compound β” value [1] was under 10, the “ε365 of Compound β” value ([1]; compound β alone) was under 10 and the “ε365 of Compound β” value [1, 3] was under 10. For the same compound, the “ε365 of Compound β” value [1, 4] was <10 (cm·mol/L)^−1, the “ε365 of Compound β” value [1, 5] was under 10 and the “ε365 of Compound β” value [1, 6] was <10 (cm·mol/L)^−1. It also gave a pKa [2, 9] of 5.9, a pKa [2, 10] of 5.9 and a pKa [2, 11] of 5.9. The pKa [2, 12] was 5.9.
With `CCCCc1nccc2ccccc12` [Example 1-n-Butylisoquinoline, 1-n-Butylisoquinoline] the “ε365 of Compound β” value [1] was under 10, the “ε365 of Compound β” value ([1]; compound β alone) was under 10 and the “ε365 of Compound β” value [1, 3] was under 10. The “ε365 of Compound β” value [1, 4] was <10 (cm·mol/L)^−1, the “ε365 of Compound β” value [1, 5] was under 10 and the “ε365 of Compound β” value [1, 6] was <10 (cm·mol/L)^−1. The pKa [2, 9] was 5.27, the pKa [2, 10] was 5.27 and the pKa [2, 11] was 5.27. The pKa [2, 12] was 5.27.
With `Cc1cc(C)c2c(C)cc(C)nc2c1` [2,4,5,7-Tetramethylquinoline] the “ε365 of Compound β” value [1] was under 10, the “ε365 of Compound β” value ([1]; compound β alone) was under 10 and the “ε365 of Compound β” value [1, 3] was under 10. For the same compound, the “ε365 of Compound β” value [1, 4] was <10 (cm·mol/L)^−1, the “ε365 of Compound β” value [1, 5] was under 10 and the “ε365 of Compound β” value [1, 6] was <10 (cm·mol/L)^−1. It also gave a pKa [2, 9] of 6.23, a pKa [2, 10] of 6.23 and a pKa [2, 11] of 6.23. It also gave a pKa [2, 12] of 6.23.
For `Clc1ccccn1` [Example 2-Chloropyridine, 2-Chloropyridine], the “ε365 of Compound β” value [1] was under 10, the “ε365 of Compound β” value ([1]; compound β alone) was under 10 and the “ε365 of Compound β” value [1, 3] was under 10. For the same compound, the “ε365 of Compound β” value [1, 4] was <10 (cm·mol/L)^−1, the “ε365 of Compound β” value [1, 5] was under 10 and the “ε365 of Compound β” value [1, 6] was <10 (cm·mol/L)^−1. For the same compound, the “pKa of Compound β in ground state” value [2] was 0.70, the “pKa of Compound β in ground state” value ([2]; compound β alone) was 0.70 and the “pKa of Compound β in ground state” value ([2]; compound β, ground state) was 0.70. The “pKa of Compound β in ground state” value ([2]; ground state) was 0.70.
For `Cc1cc(C)c2c(C)cc(C)nc2c1` [Example B7, 2,4,5,7-tetramethylquinoline], the pKa [2, 7] was 6.23.
With `Cc1cc(C)c2ccccc2n1` [Example B12, 2,4-dimethylquinoline] the “ε365 of Compound β” value [1] was under 10, the “ε365 of Compound β” value [1, 3] was under 10 and the “ε365 of Compound β” value [1, 4] was <10 (cm·mol/L)^−1. The “ε365 of Compound β” value [1, 5] was under 10, the “ε365 of Compound β” value [1, 6] was <10 (cm·mol/L)^−1 and the pKa [2, 7] was 5.67. The pKa [2, 9] was 5.67, the pKa [2, 10] was 5.67 and the pKa [2, 11] was 5.67. For the same compound, the pKa [2, 12] was 5.67.
With `c1ccc(-c2c3ccccc3nc3ccccc23)cc1` [Example B10, 9-phenylacridine] the pKa [2, 7] was 4.04.
`Clc1ccccn1` [Example B14, 2-chloropyridine] gave a pKa [2] of 0.7.
For `Cc1c2ccccc2nc2ccccc12` [Example B9, 9-methylacridine], the pKa [2, 7] was 5.4.
With `Cc1nccc2ccccc12` [Example B6, 1-Me-isoquinoline] the “ε365 of Compound β” value [1] was under 10, the “ε365 of Compound β” value ([1]; compound β alone) was under 10 and the “ε365 of Compound β” value [1, 3] was under 10. The “ε365 of Compound β” value [1, 4] was <10 (cm·mol/L)^−1, the “ε365 of Compound β” value [1, 5] was under 10 and the “ε365 of Compound β” value [1, 6] was <10 (cm·mol/L)^−1. The “pKa of Compound β in ground state” value [2] was 5.31, the “pKa of Compound β in ground state” value ([2]; compound β alone) was 5.31 and the “pKa of Compound β in ground state” value ([2]; compound β, ground state) was 5.31. The “pKa in ground state” value [2, 8] was 5.31 and the “pKa of Compound β in ground state” value ([2]; ground state) was 5.31.
`COc1cc(C)nc2ccccc12` [Example B8, 2-methyl-4-methoxyquinoline] gave a pKa [2, 7] of 6.51.
Work on `c1cnc2c(c1)CCCC2` [5,6,7,8-Tetrahydroquinoline] yielded a ε365/ε313 ([1]; in acetonitrile) of under 1 and a pKa [2, 7] of 5.9.
In the case of `c1ccc2cnccc2c1` [Example B1, isoquinoline], the “ε365 of Compound β” value [1] is reported as under 10, the “ε365 of Compound β” value ([1]; compound β alone) is reported as under 10 and the ε365/ε313 ([1]; in acetonitrile) is reported as under 1. The “ε365 of Compound β” value [1, 3] was under 10, the “ε365 of Compound β” value [1, 4] was <10 (cm·mol/L)^−1 and the “ε365 of Compound β” value [1, 5] was under 10. The “ε365 of Compound β” value [1, 6] was <10 (cm·mol/L)^−1, the “pKa in ground state” value [2, 8] was 4.69 and the pKa [2, 7] was 4.7. The pKa [2, 9] was 4.69, the pKa [2, 10] was 4.69 and the pKa [2, 11] was 4.69. For the same compound, the pKa [2, 12] was 4.69.
